Source: the NIST ThermoML archive (doi:10.1016/j.jct.2006.08.002)
Values joined by “and” are separate entries in the source; they are usually repeats but may differ in a detail not shown here. Identical values can stand only once.

Experiment: xn = mol fraction of the nth substance listed
Conditions: Fluid (supercritical or subcritical phases), Constant-volume piezometry

CCO [ethanol] + O
Conditions	mass density
524.15 K, 7270 kPa, x1 = 0.8	383.33 kg/m3
525.15 K, 7460 kPa, x1 = 0.8	383.31 kg/m3
526.15 K, 7550 kPa, x1 = 0.8	367.95 kg/m3
528.15 K, 7710 kPa, x1 = 0.8	312.86 kg/m3
528.15 K, 7870 kPa, x1 = 0.8	367.91 kg/m3
528.15 K, 8040 kPa, x1 = 0.8	383.24 kg/m3
528.15 K, 8410 kPa, x1 = 0.8	406.33 kg/m3
531.15 K, 8420 kPa, x1 = 0.8	367.86 kg/m3
533.15 K, 4750 kPa, x1 = 0.8	53.24 kg/m3
533.15 K, 7070 kPa, x1 = 0.5	84.52 kg/m3
533.15 K, 7100 kPa, x1 = 0.8	115.14 kg/m3
533.15 K, 8140 kPa, x1 = 0.8	188.77 kg/m3
533.15 K, 8270 kPa, x1 = 0.8	244.11 kg/m3 and 260.96 kg/m3
533.15 K, 8350 kPa, x1 = 0.8	284.34 kg/m3
533.15 K, 8420 kPa, x1 = 0.8	312.77 kg/m3
533.15 K, 8440 kPa, x1 = 0.8	307.44 kg/m3
533.15 K, 8750 kPa, x1 = 0.8	367.82 kg/m3
533.15 K, 8990 kPa, x1 = 0.8	383.14 kg/m3
533.15 K, 9460 kPa, x1 = 0.8	406.22 kg/m3
533.15 K, 10480 kPa, x1 = 0.8	440.21 kg/m3
533.15 K, 10860 kPa, x1 = 0.8	446.58 kg/m3
533.15 K, 17410 kPa, x1 = 0.8	516.16 kg/m3
538.15 K, 9170 kPa, x1 = 0.8	312.69 kg/m3
538.15 K, 27310 kPa, x1 = 0.8	553.51 kg/m3
543.15 K, 4920 kPa, x1 = 0.8	53.21 kg/m3
543.15 K, 7570 kPa, x1 = 0.5	84.48 kg/m3
543.15 K, 7610 kPa, x1 = 0.8	115.08 kg/m3
543.15 K, 9020 kPa, x1 = 0.8	188.68 kg/m3
543.15 K, 9530 kPa, x1 = 0.8	260.83 kg/m3
543.15 K, 9680 kPa, x1 = 0.8	284.19 kg/m3
543.15 K, 9920 kPa, x1 = 0.8	312.61 kg/m3
543.15 K, 10630 kPa, x1 = 0.8	367.62 kg/m3
543.15 K, 10940 kPa, x1 = 0.8	382.93 kg/m3
543.15 K, 11670 kPa, x1 = 0.8	406 kg/m3
548.15 K, 7850 kPa, x1 = 0.8	115.06 kg/m3
548.15 K, 9420 kPa, x1 = 0.8	188.63 kg/m3
548.15 K, 9680 kPa, x1 = 0.5	294.01 kg/m3
548.15 K, 9720 kPa, x1 = 0.5	327.56 kg/m3
548.15 K, 9980 kPa, x1 = 0.8	243.92 kg/m3
548.15 K, 10390 kPa, x1 = 0.5	421.66 kg/m3
548.15 K, 10630 kPa, x1 = 0.8	307.19 kg/m3
548.15 K, 10680 kPa, x1 = 0.8	312.53 kg/m3
548.15 K, 11790 kPa, x1 = 0.5	464.07 kg/m3
548.15 K, 11950 kPa, x1 = 0.8	382.83 kg/m3
548.15 K, 14420 kPa, x1 = 0.8	439.83 kg/m3
548.15 K, 14800 kPa, x1 = 0.8	446.2 kg/m3
548.15 K, 17240 kPa, x1 = 0.5	522.28 kg/m3
548.15 K, 26570 kPa, x1 = 0.5	568.89 kg/m3
548.15 K, 30490 kPa, x1 = 0.5	581.74 kg/m3
553.15 K, 5080 kPa, x1 = 0.8	53.19 kg/m3
553.15 K, 6130 kPa, x1 = 0.5	55.97 kg/m3
553.15 K, 7190 kPa, x1 = 0.5	69.28 kg/m3
553.15 K, 7970 kPa, x1 = 0.5	84.44 kg/m3
553.15 K, 9210 kPa, x1 = 0.5	117.47 kg/m3
553.15 K, 10090 kPa, x1 = 0.5	171.33 kg/m3
553.15 K, 10330 kPa, x1 = 0.5	234.67 kg/m3
553.15 K, 10520 kPa, x1 = 0.5	327.48 kg/m3
553.15 K, 10600 kPa, x1 = 0.5	293.93 kg/m3
553.15 K, 10890 kPa, x1 = 0.5	385.77 kg/m3
553.15 K, 11430 kPa, x1 = 0.8	312.45 kg/m3
553.15 K, 11790 kPa, x1 = 0.5	424.77 kg/m3
553.15 K, 11850 kPa, x1 = 0.5	419.86 kg/m3
553.15 K, 12540 kPa, x1 = 0.8	367.42 kg/m3
553.15 K, 13460 kPa, x1 = 0.5	463.93 kg/m3
553.15 K, 19450 kPa, x1 = 0.5	522.11 kg/m3
553.15 K, 25160 kPa, x1 = 0.8	515.53 kg/m3
553.15 K, 25720 kPa, x1 = 0.5	555.9 kg/m3
553.15 K, 47100 kPa, x1 = 0.5	614.98 kg/m3
558.15 K, 8310 kPa, x1 = 0.8	115 kg/m3
558.15 K, 10340 kPa, x1 = 0.8	188.54 kg/m3
558.15 K, 11380 kPa, x1 = 0.8	260.63 kg/m3
558.15 K, 11700 kPa, x1 = 0.8	283.97 kg/m3
558.15 K, 13990 kPa, x1 = 0.8	382.62 kg/m3
558.15 K, 15170 kPa, x1 = 0.8	405.66 kg/m3
563.15 K, 6360 kPa, x1 = 0.5	55.95 kg/m3
563.15 K, 7510 kPa, x1 = 0.5	69.25 kg/m3
563.15 K, 8400 kPa, x1 = 0.5	84.4 kg/m3
563.15 K, 8830 kPa, x1 = 0.2	67.68 kg/m3
563.15 K, 9900 kPa, x1 = 0.5	117.41 kg/m3
563.15 K, 11080 kPa, x1 = 0.5	171.24 kg/m3
563.15 K, 12360 kPa, x1 = 0.5	327.3 kg/m3
563.15 K, 12940 kPa, x1 = 0.8	312.28 kg/m3
563.15 K, 12970 kPa, x1 = 0.8	312.28 kg/m3
563.15 K, 13290 kPa, x1 = 0.5	385.56 kg/m3
563.15 K, 14460 kPa, x1 = 0.8	367.22 kg/m3
563.15 K, 16510 kPa, x1 = 0.5	463.66 kg/m3
563.15 K, 23620 kPa, x1 = 0.5	521.79 kg/m3
568.15 K, 9040 kPa, x1 = 0.2	67.66 kg/m3
573.15 K, 5420 kPa, x1 = 0.8	53.14 kg/m3
573.15 K, 6590 kPa, x1 = 0.5	55.92 kg/m3
573.15 K, 7820 kPa, x1 = 0.5	69.21 kg/m3
573.15 K, 8780 kPa, x1 = 0.5	84.36 kg/m3
573.15 K, 8990 kPa, x1 = 0.8	114.92 kg/m3
573.15 K, 10460 kPa, x1 = 0.5	117.35 kg/m3
573.15 K, 11580 kPa, x1 = 0.8	188.4 kg/m3
573.15 K, 12050 kPa, x1 = 0.5	171.15 kg/m3
573.15 K, 12840 kPa, x1 = 0.8	243.61 kg/m3
573.15 K, 13010 kPa, x1 = 0.5	234.43 kg/m3
573.15 K, 13190 kPa, x1 = 0.8	260.43 kg/m3
573.15 K, 13610 kPa, x1 = 0.5	293.62 kg/m3
573.15 K, 13720 kPa, x1 = 0.8	283.75 kg/m3
573.15 K, 14410 kPa, x1 = 0.8	306.79 kg/m3
573.15 K, 14490 kPa, x1 = 0.8	312.12 kg/m3
573.15 K, 15660 kPa, x1 = 0.5	385.34 kg/m3
573.15 K, 16440 kPa, x1 = 0.8	367.02 kg/m3
573.15 K, 16820 kPa, x1 = 0.5	419.39 kg/m3
573.15 K, 17060 kPa, x1 = 0.5	421.07 kg/m3
573.15 K, 17150 kPa, x1 = 0.8	382.31 kg/m3
573.15 K, 17210 kPa, x1 = 0.5	424.29 kg/m3
573.15 K, 18650 kPa, x1 = 0.8	405.32 kg/m3
573.15 K, 20120 kPa, x1 = 0.5	463.38 kg/m3
573.15 K, 21340 kPa, x1 = 0.8	439.21 kg/m3
573.15 K, 22500 kPa, x1 = 0.8	451.39 kg/m3
573.15 K, 28040 kPa, x1 = 0.5	521.47 kg/m3
573.15 K, 39960 kPa, x1 = 0.5	567.95 kg/m3
573.15 K, 44900 kPa, x1 = 0.5	580.76 kg/m3
577.15 K, 45760 kPa, x1 = 0.8	552.13 kg/m3
578.15 K, 23390 kPa, x1 = 0.8	445.43 kg/m3
578.15 K, 35170 kPa, x1 = 0.8	514.74 kg/m3
578.15 K, 38000 kPa, x1 = 0.5	555.01 kg/m3
593.15 K, 50760 kPa, x1 = 0.5	567.2 kg/m3
598.15 K, 5820 kPa, x1 = 0.8	53.08 kg/m3
598.15 K, 7080 kPa, x1 = 0.5	55.85 kg/m3
598.15 K, 8560 kPa, x1 = 0.5	69.13 kg/m3
598.15 K, 9720 kPa, x1 = 0.5	84.26 kg/m3
598.15 K, 10060 kPa, x1 = 0.8	114.78 kg/m3
598.15 K, 11840 kPa, x1 = 0.5	117.21 kg/m3
598.15 K, 12030 kPa, x1 = 0.2	90.05 kg/m3
598.15 K, 13600 kPa, x1 = 0.8	188.16 kg/m3
598.15 K, 14290 kPa, x1 = 0.2	138.08 kg/m3
598.15 K, 15290 kPa, x1 = 0.2	221.72 kg/m3
598.15 K, 15460 kPa, x1 = 0.2	286.74 kg/m3
